In the NIST ThermoML archive (doi:10.1016/j.jct.2018.08.005):
Numbers after ± are expanded uncertainties.

Assay: xn = mol fraction of the nth substance listed
Conditions: 293.15 K, Liquid; for speed of sound: Frequency=3 MHz, Pulse-echo method; for mass density: Vibrating tube method

CCOC(F)(C(F)(F)C(F)(F)C(F)(F)F)C(F)(C(F)(F)F)C(F)(F)F (configuration not stated) [2-trifluoromethyl-3-ethoxydodecafluorohexane] + CC(C)OC(C)C
speed of sound (100 kPa, x1 = 0.25): 802 ± 2.3 m/s
speed of sound (100 kPa, x1 = 0.375): 756.1 ± 2.2 m/s
speed of sound (100 kPa, x1 = 0.5): 719.2 ± 2.2 m/s
speed of sound (100 kPa, x1 = 0.625): 701.5 ± 2.2 m/s
speed of sound (100 kPa, x1 = 0.75): 686.9 ± 2.2 m/s
mass density (100 kPa, x1 = 0.25): 1053.2 ± 0.8 kg/m3
mass density (100 kPa, x1 = 0.375): 1178.3 ± 0.7 kg/m3
mass density (100 kPa, x1 = 0.5): 1289.5 ± 0.8 kg/m3
mass density (100 kPa, x1 = 0.625): 1391.2 ± 0.7 kg/m3
mass density (100 kPa, x1 = 0.75): 1478.4 ± 0.8 kg/m3
mass density (10000 kPa, x1 = 0.25): 1071 ± 0.8 kg/m3
mass density (10000 kPa, x1 = 0.375): 1197.9 ± 0.8 kg/m3
mass density (10000 kPa, x1 = 0.5): 1310.6 ± 0.8 kg/m3
mass density (10000 kPa, x1 = 0.625): 1413.6 ± 0.8 kg/m3
mass density (10000 kPa, x1 = 0.75): 1501.4 ± 0.8 kg/m3
speed of sound (20000 kPa, x1 = 0.25): 930.1 ± 2.2 m/s
speed of sound (20000 kPa, x1 = 0.375): 879 ± 2.2 m/s
speed of sound (20000 kPa, x1 = 0.5): 839 ± 2.2 m/s
speed of sound (20000 kPa, x1 = 0.625): 818.1 ± 2.1 m/s
speed of sound (20000 kPa, x1 = 0.75): 799.8 ± 2.1 m/s
mass density (20000 kPa, x1 = 0.25): 1086.1 ± 0.8 kg/m3
mass density (20000 kPa, x1 = 0.375): 1214.9 ± 0.8 kg/m3
mass density (20000 kPa, x1 = 0.5): 1328.9 ± 0.8 kg/m3
mass density (20000 kPa, x1 = 0.625): 1432.8 ± 0.9 kg/m3
mass density (20000 kPa, x1 = 0.75): 1521.4 ± 1 kg/m3
mass density (30000 kPa, x1 = 0.25): 1099.4 ± 0.8 kg/m3
mass density (30000 kPa, x1 = 0.375): 1229.8 ± 0.8 kg/m3
mass density (30000 kPa, x1 = 0.5): 1344.9 ± 0.9 kg/m3
mass density (30000 kPa, x1 = 0.625): 1449.9 ± 1 kg/m3
mass density (30000 kPa, x1 = 0.75): 1539 ± 1.1 kg/m3
speed of sound (40000 kPa, x1 = 0.25): 1029.9 ± 2.2 m/s
speed of sound (40000 kPa, x1 = 0.375): 975.3 ± 2.2 m/s
speed of sound (40000 kPa, x1 = 0.5): 933 ± 2.2 m/s
speed of sound (40000 kPa, x1 = 0.625): 909.4 ± 2.1 m/s
speed of sound (40000 kPa, x1 = 0.75): 888.3 ± 2.2 m/s
mass density (40000 kPa, x1 = 0.25): 1111.2 ± 0.8 kg/m3
mass density (40000 kPa, x1 = 0.375): 1243.1 ± 0.9 kg/m3
mass density (40000 kPa, x1 = 0.5): 1359.3 ± 1 kg/m3
mass density (40000 kPa, x1 = 0.625): 1465.1 ± 1.2 kg/m3
mass density (40000 kPa, x1 = 0.75): 1554.8 ± 1.3 kg/m3
mass density (50000 kPa, x1 = 0.25): 1122.1 ± 0.8 kg/m3
mass density (50000 kPa, x1 = 0.375): 1255.2 ± 1 kg/m3
mass density (50000 kPa, x1 = 0.5): 1372.4 ± 1.1 kg/m3
mass density (50000 kPa, x1 = 0.625): 1479 ± 1.3 kg/m3
mass density (50000 kPa, x1 = 0.75): 1569.2 ± 1.5 kg/m3
speed of sound (60000 kPa, x1 = 0.25): 1113.8 ± 2.2 m/s
speed of sound (60000 kPa, x1 = 0.375): 1056.9 ± 2.2 m/s
speed of sound (60000 kPa, x1 = 0.5): 1012.2 ± 2.2 m/s
speed of sound (60000 kPa, x1 = 0.625): 988 ± 2.1 m/s
speed of sound (60000 kPa, x1 = 0.75): 963.7 ± 2.2 m/s
mass density (60000 kPa, x1 = 0.25): 1132.1 ± 0.9 kg/m3
mass density (60000 kPa, x1 = 0.375): 1266.3 ± 1.1 kg/m3
mass density (60000 kPa, x1 = 0.5): 1384.4 ± 1.3 kg/m3
mass density (60000 kPa, x1 = 0.625): 1491.7 ± 1.5 kg/m3
mass density (60000 kPa, x1 = 0.75): 1582.4 ± 1.8 kg/m3
mass density (70000 kPa, x1 = 0.25): 1141.5 ± 0.9 kg/m3
mass density (70000 kPa, x1 = 0.375): 1276.8 ± 1.1 kg/m3
mass density (70000 kPa, x1 = 0.5): 1395.6 ± 1.4 kg/m3
mass density (70000 kPa, x1 = 0.625): 1503.7 ± 1.8 kg/m3
mass density (70000 kPa, x1 = 0.75): 1594.8 ± 2 kg/m3
speed of sound (80000 kPa, x1 = 0.25): 1187.2 ± 2.2 m/s
speed of sound (80000 kPa, x1 = 0.375): 1127.9 ± 2.2 m/s
